Earlier results in PMC13092032, “Unlocking the potential of alkaline polymethacrylates via ionic crosslinking in amorphous solid dispersions” (International Journal of Pharmaceutics: X, 2026).

Settings: Table 2; no method or source printed

Row | SMILES | Log P
1 | O=C1Nc2ccc(Cl)cc2[C@@](C#CC2CC2)(C(F)(F)F)O1 [Efavirenz] | 4.7
2 | Cc1ccc(-c2cc(C(F)(F)F)nn2-c2ccc(S(N)(=O)=O)cc2)cc1 [Celecoxib] | 3.5
